Results: the NIST ThermoML archive (doi:10.1021/je700270d)
± gives the expanded uncertainty stated by the source.

Tests used:
[1] = activity coefficient (dimensionless); of the first substance listed, at infinite dilution; xn = mol fraction of the nth substance listed; conditions: Liquid, x1 = 0
[2] = Liquid, Closed cell (Static) method

SMILES | activity coefficient ([1]; 250.06 K, Chromatography) | activity coefficient ([1]; 270.12 K, Chromatography) | activity coefficient ([1]; 289.97 K, Chromatography) | activity coefficient ([1]; 309.98 K, Chromatography) | activity coefficient ([1]; 329.97 K, Chromatography) | also measured
CC(F)F [1,1-difluoroethane] + C1CCOCC1 | 1.57 ± 0.06 | 1.64 ± 0.07 | 1.67 ± 0.07 | 1.69 ± 0.07 | 1.66 ± 0.07 | 
C=CC=C [1,3-butadiene] + C1CCOCC1 | 0.95 ± 0.03 | 0.97 ± 0.03 | 1.01 ± 0.03 | 1.05 ± 0.03 | 1.09 ± 0.03 | 
C=CCC [1-butene] + C1CCOCC1 |  |  |  |  |  | activity coefficient ([1]; 250.06 K, Gas Stripping Method): 1.39 ± 0.01; activity coefficient ([1]; 270.12 K, Gas Stripping Method): 1.39 ± 0.01; activity coefficient ([1]; 289.97 K, Gas Stripping Method): 1.38 ± 0.01; activity coefficient ([1]; 309.98 K, Gas Stripping Method): 1.38 ± 0.01; activity coefficient ([1]; 329.97 K, Gas Stripping Method): 1.38 ± 0.01
CC(C)C [2-methylpropane] + C1CCOCC1 | 2.14 ± 0.1 | 2.04 ± 0.09 | 1.94 ± 0.09 | 1.88 ± 0.08 | 1.82 ± 0.08 | 
C=C(C)C [2-methylpropene] + C1CCOCC1 | 1.39 ± 0.05 | 1.39 ± 0.05 | 1.38 ± 0.05 | 1.38 ± 0.05 | 1.37 ± 0.05 | 
C/C=C/C [(E)-2-butene] + C1CCOCC1 | 1.43 ± 0.05 | 1.41 ± 0.05 | 1.4 ± 0.05 | 1.4 ± 0.05 | 1.4 ± 0.05 | 
C/C=C\C [(Z)-2-butene] + C1CCOCC1 |  |  |  | 1.31 ± 0.05 |  | activity coefficient ([1]; 250 K, Chromatography): 1.36 ± 0.05; activity coefficient ([1]; 270.07 K, Chromatography): 1.33 ± 0.05; activity coefficient ([1]; 289.98 K, Chromatography): 1.32 ± 0.05; activity coefficient ([1]; 330 K, Chromatography): 1.32 ± 0.05
CCCC [butane] + C1CCOCC1 | 2.04 ± 0.09 | 1.94 ± 0.09 | 1.85 ± 0.08 | 1.78 ± 0.08 | 1.72 ± 0.07 | 
CCCl [chloroethane] + C1CCOCC1 |  |  |  | 0.94 ± 0.03 |  | activity coefficient ([1]; 250 K, Chromatography): 0.9 ± 0.03; activity coefficient ([1]; 270.07 K, Chromatography): 0.89 ± 0.03; activity coefficient ([1]; 289.98 K, Chromatography): 0.89 ± 0.03; activity coefficient ([1]; 330 K, Chromatography): 0.98 ± 0.03
COC [dimethyl ether] + C1CCOCC1 |  |  |  | 1.26 ± 0.04 |  | activity coefficient ([1]; 250 K, Chromatography): 1.29 ± 0.04; activity coefficient ([1]; 270.07 K, Chromatography): 1.26 ± 0.04; activity coefficient ([1]; 289.98 K, Chromatography): 1.26 ± 0.04; activity coefficient ([1]; 330 K, Chromatography): 1.26 ± 0.04
CCCCCC [hexane] + C1CCOCC1 |  |  |  | 1.67 ± 0.07 |  | activity coefficient ([1]; 290 K, Chromatography): 1.76 ± 0.07; activity coefficient ([1]; 299.89 K, Chromatography): 1.71 ± 0.07; activity coefficient ([1]; 319.99 K, Chromatography): 1.65 ± 0.07; activity coefficient ([1]; 330.02 K, Chromatography): 1.61 ± 0.06
CCC [propane] + C1CCOCC1 | 2.08 ± 0.09 | 1.98 ± 0.09 | 1.9 ± 0.08 | 1.84 ± 0.08 | 1.79 ± 0.08 | 
C=CC [propene] + C1CCOCC1 | 1.42 ± 0.05 | 1.42 ± 0.05 | 1.43 ± 0.05 | 1.44 ± 0.05 | 1.44 ± 0.05 | 
C1CCOCC1 [tetrahydropyran] |  |  |  |  |  | vapor or sublimation pressure ([2]; 257.96 K): 0.98 ± 0.01 kPa; vapor or sublimation pressure ([2]; 260.07 K): 1.13 ± 0.01 kPa; vapor or sublimation pressure ([2]; 270.28 K): 2.16 ± 0.02 kPa; vapor or sublimation pressure ([2]; 279.82 K): 3.7 ± 0.02 kPa; vapor or sublimation pressure ([2]; 289.94 K): 6.28 ± 0.02 kPa; vapor or sublimation pressure ([2]; 290 K): 6.3 ± 0.02 kPa; vapor or sublimation pressure ([2]; 300.01 K): 10.23 ± 0.04 kPa; vapor or sublimation pressure ([2]; 332.98 K): 40 ± 0.1 kPa; vapor or sublimation pressure ([2]; 341.09 K): 53.33 ± 0.12 kPa; vapor or sublimation pressure ([2]; 347.72 K): 66.66 ± 0.15 kPa; vapor or sublimation pressure ([2]; 353.38 K): 79.99 ± 0.18 kPa; vapor or sublimation pressure ([2]; 358.37 K): 93.33 ± 0.21 kPa; vapor or sublimation pressure ([2]; 360.22 K): 98.66 ± 0.22 kPa
